According to patent publication US7622441B2, “Sustained release pharmaceutical compounds to prevent abuse of controlled substances” (Shire LLC, priority 2002, dated 2009):
Several values for one entry are separate records, joined by “and”; a condition that tells them apart may be missing. Equal entries are not always repeated. Structures can show the parent of a compound that is named as a salt. Where two headings read alike, the source gives them in different places. Where a SMILES comes first, the peptide text is derived from it. Where no end group is shown, it is not given here. [ ]: non-standard residue; d: D form. The star is where a group is joined. ξ: configuration not given here. X2 = COc1ccc2c3c1OC1C(O*)=CCC4C(C2)N(C)CCC314; ξL = CC(C)CC(N)C(=O)O

Legend:
[1] = Pharmacokinetics of peptide-amphetamine conjugates by oral administration (serum amphetamine by ELISA); details: rat
[2] = Stability of narcotic conjugates in water (narcotic release, abuse resistance tests); assay type: physicochemical; details: for H2O (1 h, 90 C.) / H2O (24 h, RT): numbers based upon narcotic release; for % Release of Narcotic in Water: neutral pH
From the text: It is also possible to further stabilize any unstable conjugates by tethering to a larger peptide. […] The conjugates are also stable at a wide range of pH's.

[3] = intranasal; for Comments (curve) / Peak Time / % AUC / % Cmax: serum, buffer PBS; for Peak Time: multiple of hydrocodone's peak time; for % AUC / % Cmax: vs. hydrocodone
[4] = rat, oral capsule; 2 hours was the first measurement
[5] = in vivo; details: Sprague-Dawley, rat, po, 3.6 mg, Serum Concentrations of Individual Rats, oral capsule, dose equal to 3.6 mg naltrexone
[6] = Serum naltrexone levels of rats orally dosed with BB301 polyserine-naltrexone conjugate vs. naltrexone (ELISA); details: rat; for Serum Concentrations of Individual Rats: equal dose (3.6 mg naltrexone)
[7] = Pharmacokinetics of narcotic conjugates by oral administration (serum hydrocodone/oxycodone by ELISA); details: for Shape of the Curve: rat serum concentration curve vs. parent drug; for Peak Time / % AUC / % Cmax: rat serum; for Peak Time: multiple of parent drug's peak time; for % AUC / % Cmax: vs. equivalent dose of parent drug
[8] = test system: male Sprague-Dawley rats; assay: Analgesia by paw lick latency (PLL), hot plate nociceptive model, subcutaneous injection; assay type: in vivo; design: Paw Lick Latency: unit not given beside the values; details: for PLL: rat hot plate, cutoff time of 45 seconds; for Percent: PLL above basal level compared to HC; for Delta: basal PLL of untreated rats subtracted
[9] = oral solution in water, equivalent amount of amphetamine
[10] = Sprague-Dawley, in vivo, po, 1.8 mg, Mean Serum Concentrations +/− SD, oral capsule, ½ dose (1.8 mg) at 0 hours and at […]
[11] = Sprague-Dawley, in vivo, po, 3.6 mg
[12] = Sprague-Dawley, in vivo, po, 3.6 mg, Mean Serum Concentrations +/− SD, oral capsule, equal dose at time zero
[13] = male, Sprague-Dawley, in vivo, po
[14] = Table 12, 15 min., equivalent dose
[15] = Table 12, 30 min, equivalent dose
[16] = Table 12, Basal (0 h), before treatment

CC(Cc1ccccc1)NC(=O)C(N)CO (centres unmarked) [Ser-Amp]
AUC 0-12 h [1, 9]: 290 ng·h/mL
Cmax [1, 9]: 146 +/− 85
Percent Amphetamine (AUC 0-12 h) ([1]; oral, AUC relative to amphetamine): 55%
Percent Amphetamine (Cmax) ([1]; oral, Cmax relative to amphetamine): 76%

COc1ccc2c3c1OC1C(OC(=O)C(C)(C)N)=CCC4C(C2)N(C)CCC314 (centres unmarked) [Aib-HC]
H2O (1 h, 90 C.) [2]: 45
H2O (24 h, RT) [2]: 0

CC(Cc1ccccc1)NC(=O)[C@@H](N)Cc1ccccc1 (some centres unmarked) [Phe-Amp]
Cmax and AUC compared with those of the parent drug ([1]; oral): nearly equal
AUC 0-12 h [1, 9]: 505 ng·h/mL
Cmax [1, 9]: 175 +/− 77

COc1ccc2c3c1OC1C(OC(=O)C(N)Cc4ccccc4)=CCC4C(C2)N(C)CCC314 (centres unmarked) [Phe-HC]
H2O (1 h, 90 C.) [2]: 54

COc1ccc2c3c1OC1C(OC(=O)C(N)CCC(=O)O)=CCC4C(C2)N(C)CCC314 (centres unmarked) [Glu-HC, 6-O-Glu-Hydrocodone]
% Release of Narcotic in Water ([2]; 0 Hours): 0%
% Release of Narcotic in Water ([2]; 1 Hour): 4%
% Release of Narcotic in Water ([2]; 6 Hours): 19%
% Release of Narcotic in Water ([2]; 24 Hours): 42%
H2O (1 h, 90 C.) [2]: 100
H2O (24 h, RT) [2]: 79
Comments (curve) [3]: Flat curve
Peak Time [3]: 6X
% AUC [3]: 60%
% Cmax [3]: 55%

COc1ccc2c3c1OC1C(OC(=O)C(N)CO)=CCC4C(C2)N(C)CCC314 (centres unmarked) [Ser-HC]
H2O (1 h, 90 C.) [2]: 98
H2O (24 h, RT) [2]: 45

COc1ccc2c3c1OC1C(OC(=O)CN)=CCC4C(C2)N(C)CCC314 (centres unmarked) [Gly-HC, 6-O-Gly-Hydrocodone]
% Release of Narcotic in Water ([2]; 0 Hours): 6%
% Release of Narcotic in Water ([2]; 1 Hour): 8%
% Release of Narcotic in Water ([2]; 6 Hours): 11%
% Release of Narcotic in Water ([2]; 24 Hours): 32%
H2O (1 h, 90 C.) [2]: 63
H2O (24 h, RT) [2]: 26

O=C1CC[C@@]2(O)[C@H]3Cc4ccc(O)c5c4[C@@]2(CCN3CC2CC2)[C@H]1O5 [Naltrexone]
time at which serum levels spiked [4]: 2 h
concentration at 12 h [5]: 1 ng/mL
concentration at 0.5 h [6, 10]: 72 ng/mL
concentration at 3 h [6, 10]: 13 ng/mL
concentration at 5 h [6, 10]: 4 ng/mL
concentration at 8 h [6, 10]: 68 ng/mL
concentration at 11.5 h ([6]; Sprague-Dawley, in vivo, po, 1.8 mg, Mean Serum Concentrations +/− SD, oral capsule, ½ dose (1.8 mg) at 0 hours and at […], 11.5 hours): 11 ng/mL
concentration at 24 h ([6]; Sprague-Dawley, in vivo, po, 1.8 mg, Mean Serum Concentrations +/− SD, oral capsule, ½ dose (1.8 mg) at 0 hours and at […], 24 hours): 6 ng/mL
AUC(0-t) [6, 11]: 477 ng·h/mL
Cmax [6, 11]: 124 ng/mL
Tmax [6, 11]: 45 min
concentration at 0.5 h [6, 12]: 115 ng/mL
concentration at 3 h [6, 12]: 55 ng/mL
concentration at 5 h [6, 12]: 56 ng/mL
concentration at 8 h [6, 12]: 7 ng/mL
concentration at 12 h ([6]; Sprague-Dawley, in vivo, po, 3.6 mg, Mean Serum Concentrations +/− SD, oral capsule, equal dose at time zero, 12 hours): 2 ng/mL
concentration at 15 h ([6]; Sprague-Dawley, in vivo, po, 3.6 mg, Mean Serum Concentrations +/− SD, oral capsule, equal dose at time zero, 15 hours): 2 ng/mL
concentration at 24 h ([6]; Sprague-Dawley, in vivo, po, 3.6 mg, Mean Serum Concentrations +/− SD, oral capsule, equal dose at time zero, 24 hours): 2 ng/mL
time at which naltrexone serum levels spiked ([6]; oral capsule, equal dose): 0.5 h
Serum Concentrations of Individual Rats ([6]; oral capsule, 12 hours): 2 ng/mL
Serum Concentrations of Individual Rats ([6]; oral capsule, 15 hours): 1 ng/mL and 2 ng/mL
Serum Concentrations of Individual Rats ([6]; oral capsule, 24 hours): 1 ng/ml (2×) and 3 ng/ml and 2 ng/ml

Ala-Pro-Hydrocodone [Ala-Pro-HC]
H2O (1 h, 90 C.) [2]: 100
H2O (24 h, RT) [2]: 100

C[C@H](N)Cc1ccccc1 [Amphetamine, d-amphetamine sulfate, reference compound]
AUC(0-t) [1, 13]: 530 ng·h/mL
Cmax [1, 13]: 193 ng/mL

COc1ccc2c3c1OC1C(OC(=O)C4CCCN4C(=O)C(C)NC(=O)OC(C)(C)C)=CCC4C(C2)N(C)CCC314 (stereo not drawn) [Boc-Ala-Pro-HC, Boc-Ala-Pro-Hydrocodone]
Shape of the Curve [7]: ++Clearance
Peak Time [7]: 1X
% AUC [7]: 60%
% Cmax [7]: 97%

COc1ccc2c3c1OC1C(OC(=O)C(CC(C)C)NC(=O)CNC(=O)CNC(=O)CNC(=O)CN)=CCC4C(C2)N(C)CCC314 (stereo not drawn) [GGGGL-HC, Gly-Gly-Gly-Gly-Leu-Hydrocodone] (H-GGGG[ξL]-X2)
Paw Lick Latency ([8]; Table 12, 60, 2× the equivalent dose): 5
Paw Lick Latency ([8]; Table 12, 60, equivalent dose): 3.6
Paw Lick Latency ([8]; Table 12, 15 min., 2× the equivalent dose): 3
Paw Lick Latency [8, 14]: 6.8
Paw Lick Latency ([8]; Table 12, 30 min, 2× the equivalent dose): 5.6
Paw Lick Latency [8, 15]: 5.6
Paw Lick Latency [8, 16]: 7.5
Paw Lick Latency ([8]; Table 12, Basal (0 h), group given 2× the equivalent dose): 2.2

COc1ccc2c3c1O[C@H]1C(OC(=O)[C@@H]4CCCN4)=CC[C@H]4[C@@H](C2)N(C)CC[C@]314 [Pro-HC, 6-O-Pro-Hydrocodone]
% Release of Narcotic in Water ([2]; 0 Hours): 4%
% Release of Narcotic in Water ([2]; 1 Hour): 11%
% Release of Narcotic in Water ([2]; 6 Hours): 25%
% Release of Narcotic in Water ([2]; 24 Hours): 71%
H2O (1 h, 90 C.) [2]: 97
H2O (24 h, RT) [2]: 71

COc1ccc2c3c1OC1C(OC(=O)OC[C@H]4OC(O)C(O)[C@H]4O)=CCC4[C@@H](C2)N(C)CC[C@]314.Cl (some centres unmarked) [Ribose-HC]
H2O (24 h, RT) [2]: 4
Comments (curve) [3]: No change
Peak Time [3]: 1X
% AUC [3]: 20%
% Cmax [3]: 34%
inhibition of IN absorption ([3]; compound still contained small amounts of free hydrocodone): approximately 80%
Shape of the Curve [7]: No change
Peak Time [7]: 1X
% AUC [7]: 106%
% Cmax [7]: 132%

COc1ccc2c3c1OC1C(OC(=O)C(CC(C)C)NC(=O)C(CC(C)C)NC(=O)C(N)CC(C)C)=CCC4C(C2)N(C)CCC314 (centres unmarked) [LLL-HC]
Paw Lick Latency ([8]; Table 12, 60, equivalent dose): 3.2
Paw Lick Latency [8, 14]: 5.7
Paw Lick Latency [8, 15]: 3.9
Paw Lick Latency [8, 16]: 4.1

CCC(C)C(N)C(=O)OC1=CCC2C3Cc4ccc(OC)c5c4C2(CCN3C)C1O5 (centres unmarked) [Ile-HC]
H2O (1 h, 90 C.) [2]: 46
H2O (24 h, RT) [2]: 16

Glu5-HC: pentapeptide conjugate of hydrocodone (SEQ ID NO: 2) (EEEEE; also: hydrocodone conjugate)
H2O (1 h, 90 C.) [2]: 53

COc1ccc2c3c1O[C@H]1C(=O)CC[C@H]4[C@@H](C2)N(C)CC[C@]314 [Hydrocodone]
PLL ([8]; 30 minutes, subcutaneous): 40
Percent ([8]; 30 minutes): 100%
Delta ([8]; 30 minutes): 34
PLL ([8]; 45 minutes, subcutaneous): 26.7
Percent ([8]; 45 minutes): 100%
Delta ([8]; 45 minutes): 19.9
Paw Lick Latency ([8]; Table 11, 15 min., subcutaneous): 25.5
Paw Lick Latency ([8]; Table 11, 30 min, subcutaneous): 42.4
Paw Lick Latency ([8]; Table 11, 45 min., subcutaneous): 36.3
Paw Lick Latency ([8]; Table 11, 60 min., subcutaneous): 26.6
Paw Lick Latency ([8]; Table 11, Basal (0 h), before treatment): 5.5
Paw Lick Latency ([8]; Table 12, 60, equivalent dose): 15.1
Paw Lick Latency [8, 14]: 31.9
Paw Lick Latency [8, 15]: 24.5
Paw Lick Latency [8, 16]: 5.6
Comments (curve) [3]: Rapid
Peak Time [3]: 1X
% AUC [3]: 100%
% Cmax [3]: 100%

COc1ccc2c3c1O[C@H]1C(OC(=O)[C@@H](N)CC(C)C)=CC[C@H]4[C@@H](C2)N(C)CC[C@]314 [Leu-HC, Leu-Hydrocodone]
H2O (1 h, 90 C.) [2]: 49
H2O (24 h, RT) [2]: 10
